In this test the test system is ethanol-induced gastric ulcers in rats. In words: ethanol-induced gastric ulcer model in rats (anti-ulcerogenic activity). The format is in vivo, Albino rats. The conditions noted are these: for Ulcer index: mean ± SEM, n = 5; for % Inhibition: versus saline group. Details: key to Ulcer index: sum of lesion lengths (mm) per stomach. On the procedure:
Albino rats (weighing 180-220 g) were housed at the animal house of the […] Institute of Pharmaceutical Sciences under controlled environment (23-25 °C). Animals were kept in plastic cages with sawdust (changed at every 48 h) and were fasted for 24 h before starting the experiment. Animals were provided with tap water ad libitum and standard pellet diet. Experiments performed complied with rules of Institute of Laboratory Animal Resources, Commission on Life Sciences University, National Research Council (1996) and were approved by Ethical Committee of […] Institute of Pharmaceutical Sciences, […] International University. Albino rats (180-220 g) of either sex were divided into different groups (n = 5). Animals were fasted for 24 h before the study, but had free access to water. Animals in the control group received only normal saline (10 mL/kg). Compound 5a at doses of 100 and 500 μg/kg, (p. o.) was given to the animals in the treatment group. Same procedure was repeated for Compund 5b, 5c, 5d, 5e and 5f. Omeprazole (30 mg/kg) was used as a standard. The rats were sacrificed 1 h later and the stomach removed and observed for ulcers in the glandular region. The surface area of each lesion was measured and scored by method with described by Tan et al. with some modifications. The ulcer index for each rat was taken as the mean ulcer score (0: no ulcer; 1: US ≤ 0.5 mm^2; 2: 0.5 < US ≤ 2.5 mm^2; 3: 2.5 mm^2 < US ≤ 5 mm^2; 4: 5 mm^2 < US ≤ 10 mm^2; 5: 10 mm^2 < US ≤ 15 mm^2; 6: 15 mm^2 < US ≤ 20 mm^2; 7: 20 mm^2 < US ≤ 25 mm^2; 8: 25 mm^2 < US ≤ 30 mm^2; 9: 30 mm^2 < US ≤ 35 mm^2; 10: US > 35 mm^2). The sum of the length (mm) of all the lesions for each stomach was used as the ulcer index (UI). The percentage of inhibition (% I) was calculated using the following formula: %I=USc-USt×100/USc where USc = ulcer surface area of control and USt = ulcer surface area of test animal. The anti-ulcer activity of all the benzimidazole-pyrazole hybrids 5a-f was tested in vivo by ethanol-induced gastric ulcer model in rats. Rats received test compounds in two different doses; 100 and 500 μg/kg orally. Omeprazole (30 mg/kg) was used as a standard. The rats were sacrificed 1 h later and the stomach removed and observed for ulcers in the glandular region. The surface area of each lesion was measured and scored by method. […] Figure 2 show the gastric mucosa of rats. […] The results clearly indicated the greater anti-ulcer potential of our synthesized compounds as compared to omeprazole, the currently used anti-ulcer drug. […] It was observed that substitution pattern of both the aromatic rings attached to pyrazole ring effect the anti-ulcer activity. The highest activity was shown by compound 5d i.e. 83.1% at 500 μg/kg dose. All the compounds were docked against H^+/K^+ ATPase to assess the binding affinities and compared with Omeprazole which is a known mercapto benzimidazole derivative and H^+/K^+ ATPase inhibitor. […] 5d has maximum binding affinity of -9.8 kcal/mole due to maximum number of hydrogen bonding interactions with the target.

Setting [1] is: 100 µg/kg p.o. + ethanol (1 mL/100 g).
Where [2] appears, read: 500 µg/kg p.o. + ethanol (1 mL/100 g).
Setting [3] is: 30 mg/kg + ethanol (1 mL/100 g).

Consider six compounds from paper PMC5581743, “Synthesis, characterization, anti-ulcer action and molecular docking evaluation of novel benzimidazole-pyrazole hybrids” (Chemistry Central Journal, 2017).

Consider `O=C(CSc1nc2ccccc2[nH]1)n1nc(-c2ccccc2)cc1-c1ccccc1O` [Compound 5a, 2-(1H-benzimidazol-2-ylsulfanyl)-1-[5-(2-hydroxyphenyl)-3-phenyl-1H-pyrazol-1-yl]ethanone], for which, under setting [1], the Ulcer index is reported as 3.22 ± 0.009 and the % Inhibition (usually the share of the control response that was lost under treatment) came to 35.4%. Further, under setting [2], the Ulcer index came to 1.07 ± 0.008 and the “% Inhibition” value came out at 78.5%.
For `O=C(CSc1nc2ccccc2[nH]1)n1nc(-c2ccccc2O)cc1-c1ccccc1O` [Compound 5b, 2-(1H-benzimidazol-2-ylsulfanyl)-1-[3,5-bis(2-hydroxyphenyl)-1H-pyrazol-1-yl]ethanone], in that order: 3.48 ± 0.008, 30.2%, 1.26 ± 0.009 and 74.7%.
For `COc1ccc2[nH]c([S+]([O-])Cc3ncc(C)c(OC)c3C)nc2c1` (centres unmarked) [Omeprazole, reference compound], under setting [3], the Ulcer index came to 0.84 ± 0.01 and the “% Inhibition” value is listed as 83.1%. Also, under “30 mg/kg + ethanol (1 mL/100 g), listed as omeprazole”, the “% Inhibition” value is on record as 83%.
As to `COc1ccc(-c2cc(-c3ccccc3O)n(C(=O)CSc3nc4ccccc4[nH]3)n2)cc1O` [Compound 5c, 2-(1H-benzimidazol-2-ylsulfanyl)-1-[5-(2-hydroxyphenyl)-3-(3-hydroxy-4-methoxyphenyl) -1H-pyrazol-1-yl]ethanone], under setting [1], the Ulcer index is given as 3.52 ± 0.009 and the “% Inhibition” value is given as 29.4%. Further, under setting [2], the Ulcer index came out at 1.48 ± 0.009 and the “% Inhibition” value turned out to be 70.3%.
For `COc1ccc(-c2cc(-c3ccccc3)nn2C(=O)CSc2nc3ccccc3[nH]2)cc1O` [Compound 5f, 2-(1H-benzimidazol-2-ylsulfanyl)-1-[5-(3-hydroxy-4-methoxyphenyl)-3-phenyl-1H-pyrazol-1-yl]ethanone], in that order: 3.75 ± 0.016, 24.8%, 1.39 ± 0.02 and 72.1%.
On the same counts, the results for `O=C(CSc1nc2ccccc2[nH]1)n1nc(-c2ccccc2)cc1-c1ccccc1` [Compound 5e, 2-(1H-benzimidazol-2-ylsulfanyl)-1-(3,5-diphenyl-1H-pyrazol-1-yl)ethanone] are 3.18 ± 0.01, 36.2%, 1.06 ± 0.01 and 79%.
